Experimental data: patent publication US6465457B1 (priority 1991, dated 2002)

Experiments:
Assay type in all cases: in vivo
[1] = system: Thanatephorus cucumeries (Rice); assay: Foliar fungal disease test on plants: Thanatephorus cucumeries (Rice); conditions: 100 ppm a.i. foliar spray or root drench (approx. 40 ppm in dry soil), one or two days before inoculation
Description: (§1) The compounds were tested against a variety of foliar fungal diseases of plants. The technique employed was as follows.
(§2) The plants were grown in John Innes Potting Compost (No 1 or 2) in 4 cm diameter minipots. The test compounds were formulated either by bead milling with aqueous DISPERSOL T or as a solution in acetone or acetone/ethanol which was diluted to the required concentration immediately before use. […] The sprays were applied to maximum retention and the root drenches to a final concentration equivalent to approximately 40 ppm a.i. in dry soil. TWEEN 20 was added to give a final concentration of 0.05% when the sprays were applied to cereals.
(§3) For most of the tests the compounds were applied to the soil (roots) or to the foliage (by spraying) one or two days before the plant was inoculated with the disease. An exception was the test on Erysiphe graminis in which the plants were inoculated 24 hours before treatment. Foliar pathogens were applied by spray as zoosporangial suspensions onto the leaves of test plants. After inoculation, the plants were put into an appropriate environment to allow infection to proceed and then incubated until the disease was ready for assessment. The period between inoculation and assessment varied from four to fourteen days according to the disease and environment.
(§4) The disease level present (i.e. leaf area covered by actively sporulating disease) on each of the treated plants was recorded using the following assessment scale:
(§5) Each assessment was then expressed as a percentage of the level of disease present on the untreated control plants. This calculated value is referred to as a POCO (Percentage of Control) value. An example of a typical calculation is as follows:
(§6) Disease level on untreated control=90
(§7) Disese level on treated plant=30 [formula]
(§8) This calculated POCO value is then rounded to the nearest of the values in the 9-point assessment scale shown above. In this particular example, the POCO value would be rounded to 30. If the calculated POCO falls exactly mid-way between two of the points, it is rounded to the lower of the two values.

[2] = system: Phytophthora infestans (Tomatoes); conditions: 100 ppm a.i. foliar spray or root drench (approx. 40 ppm in dry soil), one or two days before inoculation
[3] = system: Plasmopara viticola (Vines); assay: Foliar fungal disease test on plants: Plasmopara viticola (Vines); conditions: 100 ppm a.i. foliar spray or root drench (approx. 40 ppm in dry soil), one or two days before inoculation
Description: as §1, §2, §3, §4, §5, §6, §7, §8

[4] = system: Erysiphe graminis tritici (Wheat); assay: Foliar fungal disease test on plants: Erysiphe graminis tritici (Wheat); conditions: 100 ppm a.i. foliar spray or root drench (approx. 40 ppm in dry soil); plants inoculated 24 hours before treatment
Description: as §1, §2, §3, §4, §5, §6, §7, §8

[5] = system: Pyricularia oryzae (Rice); conditions: 100 ppm a.i. foliar spray or root drench (approx. 40 ppm in dry soil), one or two days before inoculation
[6] = system: Venturia inaequalis (Apples); assay: Foliar fungal disease test on plants: Venturia inaequalis (Apples); conditions: 100 ppm a.i. foliar spray or root drench (approx. 40 ppm in dry soil), one or two days before inoculation
Description: as §1, §2, §3, §4, §5, §6, §7, §8

[7] = system: Septoria nodorum (Wheat); assay: Foliar fungal disease test on plants: Septoria nodorum (Wheat); conditions: 100 ppm a.i. foliar spray or root drench (approx. 40 ppm in dry soil), one or two days before inoculation
Description: as §1, §2, §3, §4, §5, §6, §7, §8

## COC=C(C(=O)OC)c1ccccc1COC(=O)Nc1ccc(OC)nc1 [32 (1)]
[1]
  POCO (Percentage of Control) disease level, Thanatephorus cucumeries (Rice): 90 (90 and 94 = 60.1-100% disease present)
[2]
  POCO (Percentage of Control) disease level, Phytophthora infestans (Tomatoes): 30 (30 = 20.1-30% disease present)
[3]
  POCO (Percentage of Control) disease level, Plasmopara viticola (Vines): 0 (0 = 0% disease present)
[4]
  POCO (Percentage of Control) disease level, Erysiphe graminis tritici (Wheat): 20 (20 and 24 = 10.1-20% disease present)
[5]
  POCO (Percentage of Control) disease level, Pyricularia oryzae (Rice): 90 (90 and 94 = 60.1-100% disease present)
[6]
  POCO (Percentage of Control) disease level, Venturia inaequalis (Apples): 60 (60 = 30.1-60% disease present)
[7]
  POCO (Percentage of Control) disease level, Septoria nodorum (Wheat): 30 (30 = 20.1-30% disease present)

## CCN(C(=O)OCc1ccccc1C(=COC)C(=O)OC)c1ccccc1 [5 (3)]
[1]
  POCO (Percentage of Control) disease level, Thanatephorus cucumeries (Rice): 5 (5 = 3.1-5% disease present)
[2]
  POCO (Percentage of Control) disease level, Phytophthora infestans (Tomatoes): 5 (5 = 3.1-5% disease present)
[3]
  POCO (Percentage of Control) disease level, Plasmopara viticola (Vines): 0 (0 = 0% disease present)
[4]
  POCO (Percentage of Control) disease level, Erysiphe graminis tritici (Wheat): 0 (0 = 0% disease present)
[5]
  POCO (Percentage of Control) disease level, Pyricularia oryzae (Rice): 0 (0 = 0% disease present)
[6]
  POCO (Percentage of Control) disease level, Venturia inaequalis (Apples): 0 (0 = 0% disease present)
[7]
  POCO (Percentage of Control) disease level, Septoria nodorum (Wheat): 0 (0 = 0% disease present)

## CCN(C(=O)OCc1ccccc1C(=COC)C(=O)OC)c1cccc([N+](=O)[O-])c1 [6 (3)]
[1]
  POCO (Percentage of Control) disease level, Thanatephorus cucumeries (Rice): 90 (90 and 94 = 60.1-100% disease present)
[2]
  POCO (Percentage of Control) disease level, Phytophthora infestans (Tomatoes): 10 (10 = 5.1-10% disease present)
[3]
  POCO (Percentage of Control) disease level, Plasmopara viticola (Vines): 0 (0 = 0% disease present)
[4]
  POCO (Percentage of Control) disease level, Erysiphe graminis tritici (Wheat): 0 (0 = 0% disease present)
[5]
  POCO (Percentage of Control) disease level, Pyricularia oryzae (Rice): 0 (0 = 0% disease present)
[6]
  POCO (Percentage of Control) disease level, Venturia inaequalis (Apples): 0 (0 = 0% disease present)
[7]
  POCO (Percentage of Control) disease level, Septoria nodorum (Wheat): 0 (0 = 0% disease present)

## COC=C(C(=O)OC)c1ccccc1COC(=O)N(C)c1cccc([N+](=O)[O-])c1 [6 (2)]
[1]
  POCO (Percentage of Control) disease level, Thanatephorus cucumeries (Rice): 30 (30 = 20.1-30% disease present)
[2]
  POCO (Percentage of Control) disease level, Phytophthora infestans (Tomatoes): 10 (10 = 5.1-10% disease present)
[3]
  POCO (Percentage of Control) disease level, Plasmopara viticola (Vines): 0 (0 = 0% disease present)
[4]
  POCO (Percentage of Control) disease level, Erysiphe graminis tritici (Wheat): 0 (0 = 0% disease present)
[5]
  POCO (Percentage of Control) disease level, Pyricularia oryzae (Rice): 0 (0 = 0% disease present)
[6]
  POCO (Percentage of Control) disease level, Venturia inaequalis (Apples): 0 (0 = 0% disease present)
[7]
  POCO (Percentage of Control) disease level, Septoria nodorum (Wheat): 0 (0 = 0% disease present)

## COC=C(C(=O)OC)c1ccccc1COC(=O)N(C)c1ccccc1F [3 (2)]
[1]
  POCO (Percentage of Control) disease level, Thanatephorus cucumeries (Rice): 0 (0 = 0% disease present)
[2]
  POCO (Percentage of Control) disease level, Phytophthora infestans (Tomatoes): 0 (0 = 0% disease present)
[3]
  POCO (Percentage of Control) disease level, Plasmopara viticola (Vines): 0 (0 = 0% disease present)
[4]
  POCO (Percentage of Control) disease level, Erysiphe graminis tritici (Wheat): 0 (0 = 0% disease present)
[5]
  POCO (Percentage of Control) disease level, Pyricularia oryzae (Rice): 0 (0 = 0% disease present)
[6]
  POCO (Percentage of Control) disease level, Venturia inaequalis (Apples): 0 (0 = 0% disease present)
[7]
  POCO (Percentage of Control) disease level, Septoria nodorum (Wheat): 0 (0 = 0% disease present)

## COC=C(C(=O)OC)c1ccccc1OC(=O)Nc1ccccc1 [5 (17)]
[1]
  POCO (Percentage of Control) disease level, Thanatephorus cucumeries (Rice): 90 (90 and 94 = 60.1-100% disease present)
[2]
  POCO (Percentage of Control) disease level, Phytophthora infestans (Tomatoes): 60 (60 = 30.1-60% disease present)
[3]
  POCO (Percentage of Control) disease level, Plasmopara viticola (Vines): 0 (0 = 0% disease present)
[4]
  POCO (Percentage of Control) disease level, Erysiphe graminis tritici (Wheat): 60 (60 = 30.1-60% disease present)
[5]
  POCO (Percentage of Control) disease level, Pyricularia oryzae (Rice): 5 (5 = 3.1-5% disease present)
[6]
  POCO (Percentage of Control) disease level, Venturia inaequalis (Apples): 1 (1 = 0.1-1% disease present)
[7]
  POCO (Percentage of Control) disease level, Septoria nodorum (Wheat): 60 (60 = 30.1-60% disease present)

## COC=C(C(=O)OC)c1ccccc1COC(=O)Nc1ccc(F)cc1F [24 (1)]
[1]
  POCO (Percentage of Control) disease level, Thanatephorus cucumeries (Rice): 60 (60 = 30.1-60% disease present)
[2]
  POCO (Percentage of Control) disease level, Phytophthora infestans (Tomatoes): 20 (20 and 24 = 10.1-20% disease present)
[3]
  POCO (Percentage of Control) disease level, Plasmopara viticola (Vines): 0 (0 = 0% disease present)
[4]
  POCO (Percentage of Control) disease level, Erysiphe graminis tritici (Wheat): 0 (0 = 0% disease present)
[5]
  POCO (Percentage of Control) disease level, Pyricularia oryzae (Rice): 90 (90 and 94 = 60.1-100% disease present)
[6]
  POCO (Percentage of Control) disease level, Venturia inaequalis (Apples): 0 (0 = 0% disease present)
[7]
  POCO (Percentage of Control) disease level, Septoria nodorum (Wheat): 60 (60 = 30.1-60% disease present)

## CCN(C(=O)OCc1ccccc1C(=COC)C(=O)OC)c1ccccc1F [3 (3)]
[1]
  POCO (Percentage of Control) disease level, Thanatephorus cucumeries (Rice): 0 (0 = 0% disease present)
[2]
  POCO (Percentage of Control) disease level, Phytophthora infestans (Tomatoes): 0 (0 = 0% disease present)
[3]
  POCO (Percentage of Control) disease level, Plasmopara viticola (Vines): 0 (0 = 0% disease present)
[4]
  POCO (Percentage of Control) disease level, Erysiphe graminis tritici (Wheat): 0 (0 = 0% disease present)
[5]
  POCO (Percentage of Control) disease level, Pyricularia oryzae (Rice): 0 (0 = 0% disease present)
[6]
  POCO (Percentage of Control) disease level, Venturia inaequalis (Apples): 0 (0 = 0% disease present)
[7]
  POCO (Percentage of Control) disease level, Septoria nodorum (Wheat): 0 (0 = 0% disease present)

## COC=C(C(=O)OC)c1ccccc1COC(=O)Nc1ccccc1C(=O)OC [33 (1)]
[1]
  POCO (Percentage of Control) disease level, Thanatephorus cucumeries (Rice): 90 (90 and 94 = 60.1-100% disease present)
[2]
  POCO (Percentage of Control) disease level, Phytophthora infestans (Tomatoes): 90 (90 and 94 = 60.1-100% disease present)
[3]
  POCO (Percentage of Control) disease level, Plasmopara viticola (Vines): 90 (90 and 94 = 60.1-100% disease present)
[4]
  POCO (Percentage of Control) disease level, Erysiphe graminis tritici (Wheat): 60 (60 = 30.1-60% disease present)
[5]
  POCO (Percentage of Control) disease level, Pyricularia oryzae (Rice): 90 (90 and 94 = 60.1-100% disease present)
[6]
  POCO (Percentage of Control) disease level, Venturia inaequalis (Apples): 0 (0 = 0% disease present)
[7]
  POCO (Percentage of Control) disease level, Septoria nodorum (Wheat): 90 (90 and 94 = 60.1-100% disease present)

## COC=C(C(=O)OC)c1ccccc1COC(=O)N(C)c1ccc(F)cc1F [24 (2)]
[1]
  POCO (Percentage of Control) disease level, Thanatephorus cucumeries (Rice): 0 (0 = 0% disease present)
[2]
  POCO (Percentage of Control) disease level, Phytophthora infestans (Tomatoes): 0 (0 = 0% disease present)
[3]
  POCO (Percentage of Control) disease level, Plasmopara viticola (Vines): 0 (0 = 0% disease present)
[4]
  POCO (Percentage of Control) disease level, Erysiphe graminis tritici (Wheat): 0 (0 = 0% disease present)
[5]
  POCO (Percentage of Control) disease level, Pyricularia oryzae (Rice): 0 (0 = 0% disease present)
[6]
  POCO (Percentage of Control) disease level, Venturia inaequalis (Apples): 0 (0 = 0% disease present)
[7]
  POCO (Percentage of Control) disease level, Septoria nodorum (Wheat): 0 (0 = 0% disease present)
